Here are results for 49 compounds from PubChem BioAssay AID179 (DTP/NCI, 2004).

The experiment has as its system CEM cells HIV-1 protection, formazan growth assay. The experiment is described as follows: NCI AIDS Antiviral Assay. The following applies: for IC50: measured here: growth of uninfected CEM cells. The essentials: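 Human CEM cells, uninfected and HIV-1-infected, exposed to five drug concentrations; growth measured by soluble formazan assay and scored as percent protection from infection, with protecting compounds retested.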

Values joined by “and” are separate entries in the source; they are usually repeats but may differ in a detail not shown here. Equal entries are not always repeated. Active and inactive are the calls of the source.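 The calls were made as follows: active = compounds giving half or more protection of infected cells from virus-caused growth loss, again on retest; inactive = the rest.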 Where a SMILES comes first, the peptide text is derived from it. Where only a bound is given, the exact number is not on record here.

On to `CC1=C[C@H]2O[C@@H]3C[C@H]4OC(=O)/C=C\C=C\C(C(C)O)OCC[C@@H](C)[C@H](O)C(=O)OC[C@@]2(CC1)[C@]4(C)[C@]31CO1` (stereo not given in full), for which the EC50 – broadly, the concentration at which the effect is half-maximal – is above 0.0479 µM and the IC50 – broadly, the concentration at which inhibition is half-maximal – came to 0.000102 µM.

As to `COC(=O)OCC1C=CC(n2cnc3c(Cl)nc(N)nc32)CC1` (stereo not given), the EC50 was above 200 µM and the concentration for half-maximal inhibition (IC50) worked out at 31.6 µM.

In the case of `O=C(Nc1ccc(S(=O)(=O)c2ccc(NS(=O)(=O)Cc3ccccc3[N+](=O)[O-])cc2)cc1)c1ccccc1SSc1ccccc1C(=O)Nc1ccc(S(=O)(=O)c2ccc(NS(=O)(=O)Cc3ccccc3[N+](=O)[O-])cc2)cc1`, the concentration giving a half-maximal response (EC50) is 28.2 µM and the IC50 was above 200 µM.

For the compound `O=C1/C(=C\c2ccccc2)C2/C(=C\c3ccccc3)C(=O)/C(=C\c3ccccc3)C2/C1=C\c1ccccc1` (stereo not given), the outcome was inactive.

With `NS(=O)(=O)c1ccc(NC(=O)/C=C/C(=O)O)cc1`, the EC50 was above 200 µM and the 50% inhibitory concentration (IC50) is above 200 µM.

Regarding `O=C1C2CC=C3CCS(=O)C3C2C(=O)N1c1ccccc1` (stereo not given), the EC50 is above 417 µM and the IC50 was above 417 µM.

Consider `COCN1C(=O)[C@@H]2CCCN2C(=O)c2ccc([N+](=O)[O-])cc21`, for which the EC50 was above 200 µM and the concentration for half-maximal inhibition (IC50) was above 200 µM.

Take `Nc1cccc(C(CC(=O)O)CC(=O)O)c1`: the EC50 is above 200 µM and the concentration for half-maximal inhibition (IC50) was above 200 µM.

Take `Cc1ccc(NC(=O)C(=O)C(C(=O)c2ccc3ccccc3c2)C2OC(=O)c3ccccc32)c(C)c1` (stereo not given): the EC50 is above 75.9 µM and the IC50 is 21.4 µM.

Regarding `COC(=O)C12C=CC(C1)n1c(=O)n(-c3ccccc3)c(=O)n12` (stereo not given), the EC50 was above 295 µM and the half-inhibitory concentration (IC50) came out at 275 µM.

Consider `COc1ccc(-c2cc(-c3cc(C)cc(Br)c3O)no2)cc1`, for which the EC50 was above 200 µM and the concentration for half-maximal inhibition (IC50) is above 200 µM.

On to `CC(=O)OC1=C2CC[C@@H]3C(CC[C@@]4(C)C3CC[C@@H]4OC(C)=O)[C@@]2(C)CC(C#N)C1=O` (stereo not given in full), for which the result was inactive.

For `CCN(CC)c1ccc(N=C2C=CC(=C(C#N)C#N)c3ccccc32)c(C)c1`, the outcome was inactive.

Regarding `NC(=O)NC1C(C(=O)O)N(Cc2ccccc2)C(=O)N1Cc1ccccc1` (stereo not given), the EC50 was above 490 µM and the concentration for half-maximal inhibition (IC50) was above 490 µM.

As for `COc1cc(Cl)c2c3c(c(C(=O)c4ccccc4)oc13)CCC2`, the result was inactive.

With `C=CCn1c(C23CC4CC(CC(C4)C2)C3)n[nH]c1=S`, the EC50 is above 1000 µM and the half-inhibitory concentration (IC50) was 30.9 µM.

On to `CC(=O)OCC1OC(OCCCOP(=O)(OCCC#N)OCC2OC(n3cnc4c(N)ncnc43)C(OC(=O)c3ccccc3)C2OC(=O)c2ccccc2)C(OC(C)=O)C(OC(C)=O)C1OC(C)=O` (stereo not given), for which the EC50 was above 100 µM and the 50% inhibitory concentration (IC50) was above 100 µM.

`COc1ccc(N(C(=O)NCCO)c2ccccc2)cc1`: the EC50 is above 200 µM and the 50% inhibitory concentration (IC50) is above 200 µM.

`CCSC(=O)NNc1nc2ccccc2s1`: the EC50 was above 200 µM and the IC50 was determined as 63.1 µM.

In the case of `N#C/C(=C/NC(=S)Nc1ccc(S(N)(=O)=O)cc1)C(N)=O`, the EC50 was above 200 µM and the IC50 is 178 µM.

For `COC(=O)[C@@H]1C=CCN1S(=O)(=O)c1ccc(C)cc1`, the outcome was inactive.

Regarding `CC(=O)c1c2c(cc3c1CC1(Cc4cc5c(cc4C1)CCC5)C3)CCC2`, the EC50 is above 200 µM and the half-maximal inhibitory concentration (IC50) was above 200 µM.

Consider `Cc1ccc(N(C(=O)CC(=O)NN)C(=O)c2ccccc2Cl)cc1`, for which the EC50 was above 269 µM and the 50% inhibitory concentration (IC50) was above 269 µM.

Turning to `Cc1ccc(N2C(=O)/C(=C\c3ccc(N(CCC#N)CCC#N)cc3)N=C2COc2ccccc2)cc1`, the EC50 was above 38 µM and the half-inhibitory concentration (IC50) is above 38 µM.

Consider `CC(C(=O)Oc1ccc2ccccc2c1-c1c(O)ccc2ccccc12)c1ccccc1` (stereo not given), for which the EC50 is above 2.51 µM and the IC50 was above 2.51 µM.

As for `O=S(=O)(Oc1ccccn1)c1ccc(Br)cc1`, the EC50 was above 200 µM and the half-maximal inhibitory concentration (IC50) was above 200 µM.

With `COc1ccc(/C(Cl)=C(\CNc2ccccn2)c2ccccc2)cc1OC`, the EC50 was above 200 µM and the IC50 was above 200 µM.

`NC(CO)C(=O)NCCS(=O)(=O)O` (stereo not given): the EC50 was above 100 µM and the IC50 is above 100 µM.

For `COC(=O)C1=C(C=O)C2C=CC1C2` (stereo not given), the result was inactive.

Turning to `Nc1nc(N)c2nnsc2n1`, the EC50 was above 200 µM and the 50% inhibitory concentration (IC50) was above 200 µM.

`CC(=O)N/N=C1/CC[C@@]2(C)C(=CC[C@H]3C4CCC(C(C)CCCC(C)C)[C@@]4(C)CCC32)C1(C)C` (stereo not given in full): the EC50 is above 200 µM and the IC50 stood at 61.7 µM.

As for `Cc1nc(N)c2nc(Nc3ccccc3)sc2n1`, the EC50 is above 141 µM and the half-maximal inhibitory concentration (IC50) is 66.1 µM.

For the compound `CC(=O)NC(CCCCN(Cc1ccccc1)C(=O)NCCCl)C(=O)NCc1ccccc1` (stereo not given), the EC50 was above 525 µM and the IC50 stood at 355 µM.

With `O=C(Cc1ccccc1)N[C@@H]1COC(=O)[C@@H]2CCCN2C(=O)[C@@H]2CCCN2C1=O` (HELM PEPTIDE1{[O=C(Cc1ccccc1)[*:2]].[O=C([C@@H](CO[*:3])N[*:1])[*:2]].P.P}$PEPTIDE1,PEPTIDE1,2:R3-4:R2$$$V2.0), the EC50 is above 200 µM and the 50% inhibitory concentration (IC50) was above 200 µM.

`O=C(/C=C/c1ccc(OCCCCCCCCCCOc2ccc(/C=C/C(=O)c3ccc(Cl)cc3)cc2)cc1)c1ccc(Cl)cc1`: the EC50 is above 4.17 µM and the concentration for half-maximal inhibition (IC50) is above 4.17 µM.

With `C1=C(c2ccccc2)O[C@H](COCc2ccccc2)C(OCc2ccccc2)[C@@H]1OCc1ccccc1` (stereo not given in full), the result was inactive.

For `COC(=O)c1cc(Cc2cc(C)c(OC)c(C(=O)OC)c2)cc(C)c1OC`, the EC50 was above 200 µM and the IC50 stood at 14.5 µM.

With `O=C1CC(c2cccc(Br)c2)n2cccc21` (stereo not given), the outcome was inactive.

As to `C=C1C(O)CC[C@]2(C)C1C1OC(C)(C)O[C@]13CC(=O)C(C)=C([C@H]1OC(C)(C)OC12)C3(C)C` (stereo not given in full), the EC50 was above 200 µM and the IC50 was above 200 µM.

Consider `COc1ccc(/C=C/C(=O)c2ccc3c(c2)OCO3)cc1OC`, for which the EC50 was above 43.7 µM and the IC50 worked out at 20.9 µM.

Regarding `C=CCCCC1CCCNC1=O` (stereo not given), the EC50 was above 1480 µM and the IC50 came out at 1150 µM.

For the compound `Cc1cccc(C)c1NC(=O)CCC(=O)NC(N)=NC#N`, the EC50 was above 457 µM and the 50% inhibitory concentration (IC50) is above 457 µM.

Take `CC(=O)/C=C(/C=N/O)c1ccccc1`: the EC50 was above 200 µM and the IC50 is above 200 µM.

With `CC1C2CC(CC2=O)C1(C)C` (stereo not given), the EC50 was above 1620 µM and the 50% inhibitory concentration (IC50) is above 1620 µM.

Take `Cc1cc(=O)oc2c(C)c(OCCCOc3ccc4c(C)cc(=O)oc4c3C)ccc12`: the EC50 is above 32.4 µM and the IC50 was above 32.4 µM.

For `CCN(CC)CCCNc1ccc([N+](=O)[O-])c2nc3ccc(OC)cc3c(NCCCN(CC)CC)c12`, the EC50 is above 50.1 µM and the IC50 is 0.234 µM.

On to `O=c1c2c3c(sc2nc2n1N=C(c1ccc(Cl)cc1)CS2)CCCC3`, for which the EC50 is above 200 µM and the half-maximal inhibitory concentration (IC50) was above 200 µM.

For the compound `NCCN.[O-][Cl+3]([O-])([O-])[O-].[Pd+2].c1ccc(-c2ccccn2)nc1`, the EC50 is above 200 µM and the 50% inhibitory concentration (IC50) is 30.2 µM.

In the case of `COc1ccc(-c2c(C#N)c(N)n(C3OC(COC(C)=O)C(OC(C)=O)C(OC(C)=O)C3OC(C)=O)c(=S)c2C#N)cc1` (stereo not given), the EC50 was above 200 µM; the IC50 was 83.2 µM and 115 µM.
